Experimental data: US20230123601A1, “PHARMACEUTICAL COMBINATION OF ANTIVIRAL AGENTS TARGETING HBV AND/OR AN IMMUNE MODULATOR FOR TREATMENT OF HBV” (priority 2019, published 2023)

Test system: HBV
Experiment: HBV-DNA levels in serum of AAV/HBV mice (qPCR)
Assay type: in vivo, C57BL/6 mice
Design: HBV-DNA levels in serum: unit not given here
Source text: The AAV-HBV mouse model is generated by injecting C57BL/6 mice with recombinant adeno-associated virus harboring a replicable HBV genome (AAV-HBV). The rAAV8-1.3 HBV ayw virus stock was purchased from Beijing FivePlus Molecular Medicine Institute (Beijing, China). The animals (male, aged 4-5 weeks upon arrival) were purchased from SLAC Laboratory Animal Co. Ltd (Shanghai, China), acclimatized in the animal facility for 5-7 days, and then injected with 1×10^11 vector genome of AAV-HBV (diluted in 200 μL of PBS) through the tail vein. Persistence expression of HBV genome can be established after three weeks, with high levels of HBV viral markers including HBV DNA, HBsAg, and HBeAg in mouse serum. With stable HBV viremia and competent immune system of the C57BL/6 mice, the AAV-HBV mouse model was used to evaluate the in vivo anti-HBV efficacy of the compounds. The in-life part of the AAV-HBV study was conducted through contracted service at Covance Pharmaceutical Research and Development (Shanghai) Co. Ltd. (Covance Shanghai) and the post-life analysis using the serum was performed internally at Roche Innovation Center Shanghai (RICS).
Seven days before compound treatment, blood samples were collected for serum preparation (˜15 μL), and based on HBV DNA, HBsAg levels in serum and body weight, the AAV-HBV infected animals were stratified into the different treatment groups.
Saline (Group 01) and anti-HBV ASO of CMP ID NO: 15_1 at 1.5 or 7.5 mg/kg were dosed sub subcutaneously once a week during Day 0-49 on Days 0, 7, 14, 21, 28, 35, 42 and 49. TLR7 agonist of CMP ID NO: VI 100 mg/kg was administered by oral gavage once every other day during Day 0-55 (QOD) or once weekly during Day 0-49 on Days 0, 7, 14, 21, 28, 35, 42 and 49 (QW). The animals were weekly bled via retro-orbital sinus for sample collection throughout the study.
Initially mice serum was diluted by a factor of 10 (1:10) with Phosphate buffered saline (PBS). DNA was extracted using the MagNA Pure 96 (Roche) robot. 50 μl of the diluted serum was mixed in a processing cartridge with 200 ul MagNA Pure 96 external lysis buffer (Roche, Cat. no. 06374913001) and incubated for 10 minutes. DNA was then extracted using the “MagNA Pure 96 DNA and Viral Nucleic Acid Small Volume Kit” (Roche, Cat. no. 06543588001) and the “Viral NA Plasma SV external lysis 2.0” protocol. DNA elution volume was 50 μl.
Quantification of extracted HBV DNA was performed using a Taqman qPCR machine (ViiA7, life technologies). Each DNA sample was tested in duplicate in the PCR. 5 μl of DNA sample was added to 15 μl of PCR mastermix containing 10 μl TaqMan Gene Expression Master Mix (Applied Biosystems, Cat. no. 4369016), 0.5 μl PrimeTime XL qPCR Primer/Probe (IDT) and 4.5 μl distilled water in a 384 well plate and the PCR was performed using the following settings: UDG Incubation (2 min, 50° C.), Enzyme Activation (10 min, 95° C.) and PCR (40 cycles with 15 sec, 95° for Denaturing and 1 min, 60° C. for annealing and extension). DNA copy numbers were calculated from Ct values based on a HBV plasmid DNA standard curve by the ViiA7 software.
To evaluate the combination of the anti-HBV ASO and the TLR7 agonist in an in vivo system, a mouse model of chronic HBV infection was used. In the AAV/HBV mouse model described in the Materials and Method a persistent HBV infection is established resulting in expression of viral markers (HBsAg, HBeAg, HBV DNA) detectable in plasma. The effect on these viral markers upon treatment with the anti-HBV ASO of CMP ID NO: 15_1 (table 2, and FIG. 4) dosed at 1.5 mg/kg or 7.5 mg/kg and the TLR7 agonist of CMP ID NO: VI (table 3) dosed with […] every other day (QOD) or once weekly (QW) in monotherapy or in combination has been evaluated.

CC[C@H](OC(C)=O)[C@@H]1C[C@@H](O)[C@H](n2c(=O)sc3cnc(N)nc32)O1 [CMP ID NO: VI, [(1S)-1-[(2S,4R,5R)-5-(5-amino-2-oxo-thiazolo[4,5-d]pyrimidin-3-yl)-4-hydroxy-tetrahydrofuran-2-yl]propyl] acetate]
HBV-DNA levels in serum (TLR7 100 mg/kg QOD, D0): 7.69 ± 0.19 | HBV-DNA levels in serum (TLR7 100 mg/kg QOD, D7): 5.74 ± 0.62 | HBV-DNA levels in serum (TLR7 100 mg/kg QOD, D14, 100 mg/kg): 5.73 ± 1.2 | HBV-DNA levels in serum (TLR7 100 mg/kg QOD, D21): 5.55 ± 0.32 | HBV-DNA levels in serum (TLR7 100 mg/kg QOD, D28): 5.23 ± 1.02 | HBV-DNA levels in serum (TLR7 100 mg/kg QOD, D35): 4.69 ± 0.71 | HBV-DNA levels in serum (TLR7 100 mg/kg QOD, D42): 4.72 ± 0.76 | HBV-DNA levels in serum (TLR7 100 mg/kg QOD, D49, 100 mg/kg): 4.5 ± 0.55 | HBV-DNA levels in serum (TLR7 100 mg/kg QOD, D56): 4.59 ± 0.65 | HBV-DNA levels in serum (TLR7 100 mg/kg QOD, D63, 100 mg/kg): 5.3 ± 1.21 | HBV-DNA levels in serum (TLR7 100 mg/kg QOD, D70): 5.95 ± 1.17 | HBV-DNA levels in serum (TLR7 100 mg/kg QOD, D77): 6.01 ± 1.17 | HBV-DNA levels in serum (TLR7 100 mg/kg QOD, D84): 6.26 ± 1.08 | HBV-DNA levels in serum (TLR7 100 mg/kg QOD, D91): 5.81 ± 1.09 | HBV-DNA levels in serum (TLR7 100 mg/kg QOD, D98): 6.02 ± 1.17 | HBV-DNA levels in serum (TLR7 100 mg/kg QOD, D105): 6.23 ± 1.29 | HBV-DNA levels in serum (TLR7 100 mg/kg QOD, D111): 6.77 ± 0.64 | HBV-DNA levels in serum (TLR7 100 mg/kg QW, D0, 100 mg/kg): 7.68 ± 0.2 | HBV-DNA levels in serum (TLR7 100 mg/kg QW, D7): 7.15 ± 0.67 | HBV-DNA levels in serum (TLR7 100 mg/kg QW, D14): 7.14 ± 0.47 | HBV-DNA levels in serum (TLR7 100 mg/kg QW, D21): 6.65 ± 0.75 | HBV-DNA levels in serum (TLR7 100 mg/kg QW, D28, 100 mg/kg): 6.1 ± 1.25 | HBV-DNA levels in serum (TLR7 100 mg/kg QW, D35): 6.61 ± 0.98 | HBV-DNA levels in serum (TLR7 100 mg/kg QW, D42, 100 mg/kg): 6.4 ± 0.84 | HBV-DNA levels in serum (TLR7 100 mg/kg QW, D49): 6.27 ± 0.89 | HBV-DNA levels in serum (TLR7 100 mg/kg QW, D56): 6.74 ± 0.64 | HBV-DNA levels in serum (TLR7 100 mg/kg QW, D63, 100 mg/kg): 6.72 ± 0.7 | HBV-DNA levels in serum (TLR7 100 mg/kg QW, D70, 100 mg/kg): 6.8 ± 0.64 | HBV-DNA levels in serum (TLR7 100 mg/kg QW, D77): 6.95 ± 0.53 | HBV-DNA levels in serum (TLR7 100 mg/kg QW, D84): 6.87 ± 0.49 | HBV-DNA levels in serum (TLR7 100 mg/kg QW, D91): 6.59 ± 0.52 | HBV-DNA levels in serum (TLR7 100 mg/kg QW, D98, 100 mg/kg): 6.7 ± 0.4 | HBV-DNA levels in serum (TLR7 100 mg/kg QW, D105): 6.93 ± 0.43 | HBV-DNA levels in serum (TLR7 100 mg/kg QW, D111): 7.07 ± 0.45 | HBV DNA rebound, distance to control group (TLR7 agonist QOD or QW monotherapy, follow-up period): ≤ 1 log | reduction of HBV-DNA (TLR7 agonist alone): only reached the LLOQ when dosed every other day (QOD) | timing of HBV DNA rebound (TLR7 agonist monotherapy): occurred sooner after the end of treatment than it did in the anti-HBV ASO treated groups | maximal reduction of HBV-DNA (TLR7 agonist monotherapy, QW dosing): around 1.5 log
